From ChEMBL document CHEMBL3751751, “Targeting quorum sensing by designing azoline derivatives to inhibit the N-hexanoyl homoserine lactone-receptor CviR: Synthesis as well as biological and theoretical evaluations” (Bioorg Med Chem, 2015)
Calls of active or inactive are those of the source. The calls are words filed in the database; no cut-off is given here.

Legend:
[1] = target: T1, CviR transcriptional regulator (Chromobacterium violaceum) (UniProt D3W065); assay: Agonist activity at CviR in Chromobacterium violaceum CV026 assessed as induction of violacein production at 0.001 to 1000 uM after 15 hrs
T1 sequence (whole entry): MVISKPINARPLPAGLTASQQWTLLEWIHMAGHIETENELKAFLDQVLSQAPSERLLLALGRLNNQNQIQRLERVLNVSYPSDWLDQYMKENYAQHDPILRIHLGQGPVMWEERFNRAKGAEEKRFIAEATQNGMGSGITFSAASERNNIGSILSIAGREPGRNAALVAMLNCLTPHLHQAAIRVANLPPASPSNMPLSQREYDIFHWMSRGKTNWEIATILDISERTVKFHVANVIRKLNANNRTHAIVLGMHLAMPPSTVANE

[2] = target: T1, CviR transcriptional regulator (Chromobacterium violaceum); assay: Inhibition of CviR in Chromobacterium violaceum CV026 assessed as reduction of violacein production at 0.001 to 1000 uM after 15 hrs
[3] = system: Chromobacterium violaceum; assay: Bactericidal activity in Chromobacterium violaceum CV026 at 1000 uM; type: ADME, organism-based; conditions: in vivo
[4] = target: T1, CviR transcriptional regulator (Chromobacterium violaceum); assay: Inhibition of CviR in Chromobacterium violaceum CV026 assessed as reduction of violacein production at 100 uM after 15 hrs
[5] = target: T2, CviR transcriptional regulator (Chromobacterium violaceum, UniProt D3W065); assay: Inhibition of CviR in Chromobacterium violaceum CV026 assessed as reduction of violacein production after 15 hrs
T2 sequence (D3W065 whole entry): T1 sequence (whole entry)

[6] = target: T1, CviR transcriptional regulator (Chromobacterium violaceum); assay: Inhibition of CviR in Chromobacterium violaceum CV026 assessed as reduction of violacein production at 1000 uM after 15 hrs
[7] = target: T1, CviR transcriptional regulator (Chromobacterium violaceum); assay: Inhibition of CviR in Chromobacterium violaceum CV026 assessed as reduction of violacein production at 10 to 1000 uM after 15 hrs
[8] = target: T1, CviR transcriptional regulator (Chromobacterium violaceum); assay: Inhibition of CviR in Chromobacterium violaceum CV026 assessed as reduction of violacein production at 0.1 uM after 15 hrs
[9] = target: T1, CviR transcriptional regulator (Chromobacterium violaceum); assay: Inhibition of CviR in Chromobacterium violaceum CV026 assessed as reduction of violacein production at 100 nM after 15 hrs
[10] = system: Chromobacterium violaceum; assay: Bactericidal activity in Chromobacterium violaceum CV026 at 1 mM; type: ADME, organism-based; conditions: in vivo, 1000 µM
[11] = system: Chromobacterium violaceum; assay: Bacteriostatic activity in Chromobacterium violaceum CV026 at 100 uM; type: ADME, organism-based; conditions: in vivo
[12] = target: T1, CviR transcriptional regulator (Chromobacterium violaceum); assay: Inhibition of CviR in Chromobacterium violaceum CV026 assessed as reduction of violacein production at 1 nM after 15 hrs

Row | Activity [1] | inhibition [2] | SMILES | also measured
1 | inactive | inactive | CCCCCCOc1ccccc1 | –
2 | inactive | – | CCCCCCCCCOc1ccc(C2=NCCCN2)cc1 | Activity [3]: Toxic
3 | inactive | inactive | CCCCCC(=O)NC1=NCCS1 | –
4 | inactive | – | O=C(COc1ccc(C2=NCCN2)cc1)Nc1ccc(Cl)cc1 | –
5 | inactive | inactive | CCCCCCCCCCCC(=O)NC1=NCCS1 | –
6 | inactive | inactive | O=C(NC1=NCCS1)c1ccccc1 | –
7 | inactive | inactive | CCCCCCCCC(=O)NC1=NCCS1 | –
8 | inactive | – | CCCCCC(=O)Nc1ccc(C2=NCCN2)cc1 | inhibition [8]: Active
9 | inactive | – | CCCCCCCCCC(=O)NC1CCOC1=O (stereo unspecified) | inhibition [9]: 51%
10 | inactive | inactive | O=C(NC1=NCCN1)c1ccccc1 | –
11 | inactive | – | CCCCCCCCCOc1ccc(C2=NCCN2)cc1 | Activity [10]: Toxic; Activity [11]: Toxic
12 | inactive | – | CCCCCCCCC(=O)Nc1ccc(C2=NCCN2)cc1 | inhibition [4]: 49%; inhibition [12]: 14%

Row | SMILES | Activity [1] | inhibition [2] | also measured
13 | CCCCCCOc1ccc(C2=NCCO2)cc1 | inactive | – | inhibition [4]: Active; IC50 [5]: 97.4 µM
14 | O=C(Cc1ccccc1)NC1=NCCS1 | inactive | – | IC50 [5]: 670 µM; inhibition [6]: Active
15 | COc1ccc(NC(=O)COc2ccc(C3=NCCN3)cc2)cc1 | inactive | – | inhibition [7]: Active; IC50 [5]: 341 µM
16 | O=C(COc1ccc(C2=NCCN2)cc1)Nc1ccccc1 | inactive | – | inhibition [7]: Active; IC50 [5]: 66.1 µM
17 | CCCCCCOc1ccc(C2=NCCN2)cc1 | inactive | – | inhibition [4]: Active; IC50 [5]: 90.9 µM
18 | CCCCCC(=O)NC1CCOC1=O (stereo unspecified) | inactive | – | –
